# ChEMBL document CHEMBL1955788, “C-C bond formation at C-2 of a quinoline ring: synthesis of 2-(1H-indol-3-yl)quinoline-3-carbonitrile derivatives as a new class of PDE4 inhibitors” (Bioorg Med Chem, 2012)
# Activity calls are given as the source filed them. No cut-off for these calls is given here.
# Target: T1, 3',5'-cyclic-AMP phosphodiesterase 4B (Homo sapiens, UniProt Q07343)
# Assay: Inhibition of PDE4B expressed in HEK293 cells assessed as fold reduction in forskolin-stimulated cAMP production pretreated for 30 mins measured 4 hrs after forskolin challenge by luciferase reporter gene assay
# Type: functional, cell-based
# T1 sequence (Q07343 whole entry): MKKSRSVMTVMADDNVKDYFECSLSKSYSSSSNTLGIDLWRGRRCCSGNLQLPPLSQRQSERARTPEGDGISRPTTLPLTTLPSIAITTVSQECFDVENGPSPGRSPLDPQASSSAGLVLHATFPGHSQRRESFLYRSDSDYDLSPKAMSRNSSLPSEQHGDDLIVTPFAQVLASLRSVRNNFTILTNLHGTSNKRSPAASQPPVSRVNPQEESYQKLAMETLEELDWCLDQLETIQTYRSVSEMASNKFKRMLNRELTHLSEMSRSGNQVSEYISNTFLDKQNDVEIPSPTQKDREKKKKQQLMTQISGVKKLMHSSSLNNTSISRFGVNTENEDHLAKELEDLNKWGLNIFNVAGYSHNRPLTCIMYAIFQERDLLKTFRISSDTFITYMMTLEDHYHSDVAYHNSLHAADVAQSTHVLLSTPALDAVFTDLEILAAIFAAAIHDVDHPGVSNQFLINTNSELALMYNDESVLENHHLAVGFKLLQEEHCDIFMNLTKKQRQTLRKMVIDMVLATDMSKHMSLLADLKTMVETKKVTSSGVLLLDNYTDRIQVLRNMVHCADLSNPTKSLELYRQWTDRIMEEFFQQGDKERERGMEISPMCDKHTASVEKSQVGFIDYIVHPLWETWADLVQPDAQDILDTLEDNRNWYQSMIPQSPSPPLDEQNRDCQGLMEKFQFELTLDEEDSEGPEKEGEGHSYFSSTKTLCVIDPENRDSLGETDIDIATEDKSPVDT
EC50 [nM],inhibition,Structure (SMILES)
890,Dose-dependent effect,COc1ccc2c(-c3nc4ccccc4cc3C#N)c[nH]c2c1

# Target: T1, 3',5'-cyclic-AMP phosphodiesterase 4B
# Assay: Inhibition of PDE4B expressed in HEK293 cells assessed as fold reduction in forskolin-stimulated cAMP production at 10 uM pretreated for 30 mins measured 4 hrs after forskolin challenge by luciferase reporter gene assay
# Type: functional, cell-based
row,PDE4B inhibition activity (fold reduction in cAMP),Structure (SMILES)
1,Active,Cc1ccc2nc(-c3c[nH]c4ccc(Cl)cc34)c(C#N)cc2c1
2,Active,COc1ccc2c(-c3nc4ccc(C)cc4cc3C#N)c[nH]c2c1
3,Active,N#Cc1cc2ccccc2nc1-c1c[nH]c2cc(F)c(F)cc12
4,Active,Cn1cc(-c2nc3ccccc3cc2C#N)c2ccccc21
5,Active,Cc1ccc2nc(-c3c[nH]c4ccc(Br)cc34)c(C#N)cc2c1
6,Active,COc1ccc2c(-c3nc4ccccc4cc3C#N)c[nH]c2c1
7,Active,COc1ccc2[nH]cc(-c3nc4ccccc4cc3C#N)c2c1
8,Active,COc1ccc2[nH]cc(-c3nc4ccc(C)cc4cc3C#N)c2c1
9,Active,Cc1ccc2nc(-c3c[nH]c4ccccc34)c(C#N)cc2c1
10,Active,N#Cc1cc2ccccc2nc1-c1c[nH]c2ccc(Cl)cc12
11,Active,N#Cc1cc2ccccc2nc1-c1c[nH]c2ccc(Br)cc12
12,Active,N#Cc1cc2ccccc2nc1-c1c[nH]c2ccccc12
